In US5621010A, “Urea derivatives and their use as ACAT inhibitors” (Nisshin Flour Milling Co., Ltd., priority 1993, dated 1997):

Legend:
[1] = tested on: ACAT (liver microsome fractions of male rabbits); experiment: ACAT inhibitory activity: formation of labelled cholesteryl esters from [1-14C]oleoyl-CoA and endogenous cholesterol; assay type: biochemical, rabbit; conditions: compound added at 10^-7 M
Description: The enzyme preparation, ACAT was prepared from liver microsme fractions of male rabbits according to the method of E. E. Largis et al. (Journal of Lipid Research, Vol. 30, pages 681-690, 1989). The activity was calculated by assaying the amount of the labelled cholesteryl esters formed from [1-^14 C]oleoyl-CoA and endogenous cholesterol according to the method of Kazuichi NATORI et al. (Japan J. Pharmacol., Vol. 42, pages 517-523, 1986).
The result is shown in Table 1, in which percent inhibition of the formation of the labelled cholesteryl esters with a compound added at 10^-7 M is indicated as index for the ACAT inhibitory activity.

[2] = Cholesterol-lowering activity in hypercholesteremic rats; assay type: in vivo, Sprague-Dawley male rats; conditions: 30 mg/kg oral, in 0.5% methylcellulose; plasma cholesterol prior to and 5 hrs after administration
Description: Sprague-Dawley male rats were given a powdery feed containing 1% cholesterol and 0.5% cholic acid in an amount of 15 g per day per animal for 3 days to produce hypercholesteremic rats. Four days later, a compound suspended in 0.5% methylcellulose was administered orally at a dose of 30 mg/kg. Blood was drawn prior to and 5 hrs after the administration of the compound, for which the plasma cholesterol level was measured using a commercially available assay kit (Cholesterol E Test Wako, Wako Junyaku K.K.).

[3] = tested on: Human LDL; experiment: Antioxidative activity: inhibition of MDA formation from LDL incubated with cupric sulfate; assay type: biochemical; conditions: compound 10^-5 M; cupric sulfate 5×10^-6 M; 5 hrs; compared with control
Description: Human LDL was incubated in the presence of cupric sulfate (5×10^-6 M) and in the presence or absence of a compound (10^-5 M) for 5 hrs. After the incubation, the peroxidation of low-density lipoproteins (LDL) is evaluated by the formation of malondialdehyde (MDA), which is a sort of lipid peroxides according to the method of Simon J. T. Mao et al. (J. Med. Chem., Vol. 34, pages 298-302, 1991). Activity of the compound is shown by percent inhibition of the MDA formation as compared with control.

Structure (SMILES) | ACAT Inhibition [1] [%] | Percent Reduction of Cholesterol [2] [%] | Antioxidant Activity (percent inhibition of the MDA formation) [3] [%]
CN(C(=O)Nc1ccccc1CCc1cc(C(C)(C)C)c(O)c(C(C)(C)C)c1)C1CCN(Cc2ccccc2)CC1 [Example 92, N-[2-(3,5-di-tert-butyl-4-hydroxyphenethyl)phenyl]-N'-(1-benzyl-4-piperidyl)-N'-methylurea] | 99 | 79.9 | 96
CC(C)(C)c1cc(CCc2cc(F)cc(F)c2NC(=O)NC2CCN(Cc3ccccc3)CC2)cc(C(C)(C)C)c1O [Example 108, N-[2-(3,5-di-tert-butyl-4-hydroxyphenethyl)-4,6-difluorophenyl]-N'-(1-benzyl-4-piperidyl)urea] | 97 | 71.8 | 93
CC(C)(C)c1cc(CCc2ccccc2NC(=O)NC2CCN(Cc3ccc(F)cc3)CC2)cc(C(C)(C)C)c1O [Example 83, N-[2-(3,5-di-tert-butyl-4-hydroxyphenethyl)phenyl]-N'-[1-(4-fluorobenzyl)-4-piperidyl]urea] | 96 | 44.6 | 96
